# Biological target: Aβ42 (Homo sapiens, UniProt P05067)
# Assay: Th-T (thioflavin-T) assay of Aβ42 aggregation
# Assay type: biochemical
# Details: for Th-T assay plate reading, mean of three wells (Supplementary Fig. 47): source data, Ab alone and No Ab as controls
# Chain of Aβ42 (P05067 672-713): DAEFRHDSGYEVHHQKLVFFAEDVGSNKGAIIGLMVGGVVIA
compound,measurement,setting,value
C=C1CCC2C(C)(CC(=O)C=C(C)C)C(O)CCC2(C)C1Cc1c(O)c(C)c(C)oc1=O (centres unmarked) [Compound 7],"Th-T fluorescence, mean of three wells","Aβ42 aggregation time course, reading M117",3.444
same,"Th-T fluorescence, mean of three wells","Aβ42 aggregation time course, reading M118",3.462
same,"Th-T fluorescence, mean of three wells","Aβ42 aggregation time course, reading M119",3.421
same,"Th-T fluorescence, mean of three wells","Aβ42 aggregation time course, reading M120",3.485
same,"Th-T fluorescence, mean of three wells","Aβ42 aggregation time course, reading M121",3.437
same,"Th-T fluorescence, mean of three wells","Aβ42 aggregation time course, reading M122",3.4838
same,"Th-T fluorescence, mean of three wells","Aβ42 aggregation time course, reading M123",3.463
same,"Th-T fluorescence, mean of three wells","Aβ42 aggregation time course, reading M124",3.451
same,"Th-T fluorescence, mean of three wells","Aβ42 aggregation time course, reading M125",3.454
same,"Th-T fluorescence, mean of three wells","Aβ42 aggregation time course, reading M126",3.465
same,"Th-T fluorescence, mean of three wells","Aβ42 aggregation time course, reading M127",3.446
same,"Th-T fluorescence, mean of three wells","Aβ42 aggregation time course, reading M128",3.459
same,"Th-T fluorescence, mean of three wells","Aβ42 aggregation time course, reading M129",3.461
same,"Th-T fluorescence, mean of three wells","Aβ42 aggregation time course, reading M130",3.435
same,"Th-T fluorescence, mean of three wells","Aβ42 aggregation time course, reading M131",3.434
same,"Th-T fluorescence, mean of three wells","Aβ42 aggregation time course, reading M132",3.446
same,"Th-T fluorescence, mean of three wells","Aβ42 aggregation time course, reading M133",3.459
same,"Th-T fluorescence, mean of three wells","Aβ42 aggregation time course, reading M134",3.427
same,"Th-T fluorescence, mean of three wells","Aβ42 aggregation time course, reading M135",3.416
same,"Th-T fluorescence, mean of three wells","Aβ42 aggregation time course, reading M136",3.414
same,"Th-T fluorescence, mean of three wells","Supplementary Fig. 47, reading M137",3.399
same,"Th-T fluorescence, mean of three wells","Supplementary Fig. 47, reading M138",3.412
same,"Th-T fluorescence, mean of three wells","Supplementary Fig. 47, reading M139",3.411
same,"Th-T fluorescence, mean of three wells","Supplementary Fig. 47, reading M140",3.433
same,"Th-T fluorescence, mean of three wells","Supplementary Fig. 47, reading M141",3.413
same,"Th-T fluorescence, mean of three wells","Supplementary Fig. 47, reading M142",3.437
same,"Th-T fluorescence, mean of three wells","Supplementary Fig. 47, reading M143",3.394
same,"Th-T fluorescence, mean of three wells","Supplementary Fig. 47, reading M144",3.432
same,"Th-T fluorescence, mean of three wells","Supplementary Fig. 47, reading M145",3.431
same,"Th-T fluorescence, mean of three wells","Supplementary Fig. 47 source data, measurement M37 of time course",3.548
same,"Th-T fluorescence, mean of three wells","Supplementary Fig. 47 source data, measurement M38 of time course",3.519
same,"Th-T fluorescence, mean of three wells","Supplementary Fig. 47 source data, measurement M39 of time course",3.507
same,"Th-T fluorescence, mean of three wells","Supplementary Fig. 47 source data, measurement M40 of time course",3.528
same,"Th-T fluorescence, mean of three wells","Supplementary Fig. 47 source data, measurement M41 of time course",3.5472
same,"Th-T fluorescence, mean of three wells","Supplementary Fig. 47 source data, measurement M42 of time course",3.534
same,"Th-T fluorescence, mean of three wells","Supplementary Fig. 47 source data, measurement M43 of time course",3.54
same,"Th-T fluorescence, mean of three wells","Supplementary Fig. 47 source data, measurement M44 of time course",3.555
same,"Th-T fluorescence, mean of three wells","Supplementary Fig. 47 source data, measurement M45 of time course",3.57
same,"Th-T fluorescence, mean of three wells","Supplementary Fig. 47 source data, measurement M46 of time course",3.557
same,"Th-T fluorescence, mean of three wells","Supplementary Fig. 47 source data, measurement M47 of time course",3.602
same,"Th-T fluorescence, mean of three wells","Supplementary Fig. 47 source data, measurement M48 of time course",3.575
same,"Th-T fluorescence, mean of three wells","Supplementary Fig. 47 source data, measurement M49 of time course",3.594
same,"Th-T fluorescence, mean of three wells","Supplementary Fig. 47 source data, measurement M50 of time course",3.623
same,"Th-T fluorescence, mean of three wells","Supplementary Fig. 47 source data, measurement M51 of time course",3.626
same,"Th-T fluorescence, mean of three wells","Supplementary Fig. 47 source data, measurement M52 of time course",3.602
same,"Th-T fluorescence, mean of three wells","Supplementary Fig. 47 source data, measurement M53 of time course",3.622
same,"Th-T fluorescence, mean of three wells","Supplementary Fig. 47 source data, measurement M54 of time course",3.589
same,"Th-T fluorescence, mean of three wells","Supplementary Fig. 47 source data, measurement M55 of time course",3.592
same,"Th-T fluorescence, mean of three wells","Supplementary Fig. 47 source data, measurement M56 of time course",3.6022
same,"Th-T assay plate reading, mean of three wells (Supplementary Fig. 47)",measurement M1,0.291
same,"Th-T assay plate reading, mean of three wells (Supplementary Fig. 47)",measurement M2,0.3102
same,"Th-T assay plate reading, mean of three wells (Supplementary Fig. 47)",measurement M3,0.3462
same,"Th-T assay plate reading, mean of three wells (Supplementary Fig. 47)",measurement M4,0.3847
same,"Th-T assay plate reading, mean of three wells (Supplementary Fig. 47)",measurement M5,0.4026
same,"Th-T assay plate reading, mean of three wells (Supplementary Fig. 47)",measurement M6,0.4778
same,"Th-T assay plate reading, mean of three wells (Supplementary Fig. 47)",measurement M7,0.5127
same,"Th-T assay plate reading, mean of three wells (Supplementary Fig. 47)",measurement M8,0.5767
same,"Th-T assay plate reading, mean of three wells (Supplementary Fig. 47)",measurement M9,0.6534
same,"Th-T assay plate reading, mean of three wells (Supplementary Fig. 47)",measurement M10,0.7067
same,"Th-T assay plate reading, mean of three wells (Supplementary Fig. 47)",measurement M11,0.7325
same,"Th-T assay plate reading, mean of three wells (Supplementary Fig. 47)",measurement M12,0.7635
same,"Th-T assay plate reading, mean of three wells (Supplementary Fig. 47)",measurement M13,0.7892
same,"Th-T assay plate reading, mean of three wells (Supplementary Fig. 47)",measurement M14,0.8105
same,"Th-T assay plate reading, mean of three wells (Supplementary Fig. 47)",measurement M15,0.8372
same,"Th-T assay plate reading, mean of three wells (Supplementary Fig. 47)",measurement M16,0.8682
same,"Th-T fluorescence, mean of three wells","reading M17, Supplementary Fig. 47 source data",0.9169
same,"Th-T fluorescence, mean of three wells","reading M18, Supplementary Fig. 47 source data",0.9995
same,"Th-T fluorescence, mean of three wells","reading M19, Supplementary Fig. 47 source data",1.135
same,"Th-T fluorescence, mean of three wells","reading M20, Supplementary Fig. 47 source data",1.37
same,"Th-T fluorescence, mean of three wells","reading M21, Supplementary Fig. 47 source data",1.709
same,"Th-T fluorescence, mean of three wells","reading M22, Supplementary Fig. 47 source data",2.121
same,"Th-T fluorescence, mean of three wells","reading M23, Supplementary Fig. 47 source data",2.518
same,"Th-T fluorescence, mean of three wells","reading M24, Supplementary Fig. 47 source data",2.859
same,"Th-T fluorescence, mean of three wells","reading M25, Supplementary Fig. 47 source data",3.1034
same,"Th-T fluorescence, mean of three wells","reading M26, Supplementary Fig. 47 source data",3.2675
same,"Th-T fluorescence, mean of three wells","reading M27, Supplementary Fig. 47 source data",3.339
same,"Th-T fluorescence, mean of three wells","reading M28, Supplementary Fig. 47 source data",3.364
same,"Th-T fluorescence, mean of three wells","reading M29, Supplementary Fig. 47 source data",3.378
same,"Th-T fluorescence, mean of three wells","reading M30, Supplementary Fig. 47 source data",3.446
same,"Th-T fluorescence, mean of three wells","reading M31, Supplementary Fig. 47 source data",3.431
same,"Th-T fluorescence, mean of three wells","reading M32, Supplementary Fig. 47 source data",3.47
same,"Th-T fluorescence, mean of three wells","reading M33, Supplementary Fig. 47 source data",3.448
same,"Th-T fluorescence, mean of three wells","reading M34, Supplementary Fig. 47 source data",3.489
same,"Th-T fluorescence, mean of three wells","reading M35, Supplementary Fig. 47 source data",3.5187
same,"Th-T fluorescence, mean of three wells","reading M36, Supplementary Fig. 47 source data",3.503
same,"Th-T fluorescence, mean of three wells","time course, reading M57",3.603
same,"Th-T fluorescence, mean of three wells","time course, reading M58",3.607
same,"Th-T fluorescence, mean of three wells","time course, reading M59",3.578
same,"Th-T fluorescence, mean of three wells","time course, reading M60",3.583
same,"Th-T fluorescence, mean of three wells","time course, reading M61",3.605
same,"Th-T fluorescence, mean of three wells","time course, reading M62",3.61
same,"Th-T fluorescence, mean of three wells","time course, reading M63",3.6015
same,"Th-T fluorescence, mean of three wells","time course, reading M64",3.57
same,"Th-T fluorescence, mean of three wells","time course, reading M65",3.572
same,"Th-T fluorescence, mean of three wells","time course, reading M66",3.5992
same,"Th-T fluorescence, mean of three wells","time course, reading M67",3.63
same,"Th-T fluorescence, mean of three wells","time-course reading M97, Supplementary Fig. 47 source data",3.5286
same,"Th-T fluorescence, mean of three wells","time-course reading M98, Supplementary Fig. 47 source data",3.531
same,"Th-T fluorescence, mean of three wells","time-course reading M99, Supplementary Fig. 47 source data",3.498
same,"Th-T fluorescence, mean of three wells","time-course reading M100, Supplementary Fig. 47 source data",3.513
same,"Th-T fluorescence, mean of three wells","time-course reading M101, Supplementary Fig. 47 source data",3.502
same,"Th-T fluorescence, mean of three wells","time-course reading M102, Supplementary Fig. 47 source data",3.488
same,"Th-T fluorescence, mean of three wells","time-course reading M103, Supplementary Fig. 47 source data",3.486
same,"Th-T fluorescence, mean of three wells","time-course reading M104, Supplementary Fig. 47 source data",3.491
same,"Th-T fluorescence, mean of three wells","time-course reading M105, Supplementary Fig. 47 source data",3.477
same,"Th-T fluorescence, mean of three wells","time-course reading M106, Supplementary Fig. 47 source data",3.476
same,"Th-T fluorescence, mean of three wells","time-course reading M107, Supplementary Fig. 47 source data",3.493
same,"Th-T fluorescence, mean of three wells","time-course reading M108, Supplementary Fig. 47 source data",3.51
same,"Th-T fluorescence, mean of three wells","time-course reading M109, Supplementary Fig. 47 source data",3.4898
same,"Th-T fluorescence, mean of three wells","time-course reading M110, Supplementary Fig. 47 source data",3.516
same,"Th-T fluorescence, mean of three wells","time-course reading M111, Supplementary Fig. 47 source data",3.513
same,"Th-T fluorescence, mean of three wells","time-course reading M112, Supplementary Fig. 47 source data",3.526
same,"Th-T fluorescence, mean of three wells","time-course reading M113, Supplementary Fig. 47 source data",3.459
same,"Th-T fluorescence, mean of three wells","time-course reading M114, Supplementary Fig. 47 source data",3.543
same,"Th-T fluorescence, mean of three wells","time-course reading M115, Supplementary Fig. 47 source data",3.464
same,"Th-T fluorescence, mean of three wells","time-course reading M116, Supplementary Fig. 47 source data",3.458

# — article PMC7156458, “Synthetic biology based construction of biological activity-related library of fungal decalin-containing diterpenoid pyrones” (Nature Communications, 2020)
